Laboratory results published in patent US9765107B2, “Cyclic phosphonate substituted nucleoside derivatives and methods of use thereof for the treatment of viral diseases” (Merck Sharp & Dohme Corp., priority 2013, dated 2017).

Key:
[1] = Replicon activity assay (replicon RNA by real-time RT-PCR); type: cell-based, HCV; conditions: Hepatitis C virus, 72 h; replicon RNA level, three days post-dosing, 10% fetal bovine serum; read-out: Replicon (1a) EC50
[2] = tested on: replicon cells; assay: Cytotoxicity MTS assay in replicon cells; type: cell-based; conditions: CC50, MTS assay, three days post dosing
Method: To measure cell-based anti-HCV activity of the compounds of the present invention, replicon cells (1b-Con1) are seeded at 5000 cells/well in 96-well plates one day prior to treatment with a compound of the invention. Various concentrations of a test compound of the invention in DMSO are then added to the replicon cells, with the final concentration of DMSO at 0.5% and fetal bovine serum at 10% in the assay media. Cells are harvested three days post-dosing and the replicon RNA level is determined using real-time RT-PCR (Taqman assay) with GAPDH RNA as endogenous control. EC50 values are calculated from experiments with 10 serial twofold dilutions of the inhibitor in triplicate. To measure cytotoxicity in replicon cells of an inhibitor, an MTS assay is performed according to the manufacturer's protocol for CellTiter 96 Aqueous One Solution Cell Proliferation Assay (Promega, Cat #G3580) three days post dosing on cells treated identically as in replicon activity assays. CC50 is the concentration of inhibitor that yields 50% inhibition compared to vehicle-treated cells. Cytotoxicity in other types of cells can be measured using the same MTS protocol.

| SMILES | EC50 [1] [µM] | Cytotoxicity [2] [µM] |
| --- | --- | --- |
| CC(C)O[P@@]1(=O)OC[C@H]2O[C@@H](n3ccc(=O)[nH]c3=O)[C@](C)(N)C2O1 (stereo partly drawn) | > 100 | >100 |
| C[C@@]1(N)[C@@H]2O[P@@](=O)(OCc3ccccc3)OC[C@H]2O[C@H]1n1ccc(=O)[nH]c1=O | 56.2 | >100 |
| C[C@@]1(N)[C@@H]2O[P@@](=O)(OC3CCCC3)OC[C@H]2O[C@H]1n1ccc(=O)[nH]c1=O | > 100 | >100 |
| CCC(CC)CO[P@@]1(=O)OC[C@H]2O[C@@H](n3ccc(=O)[nH]c3=O)[C@](C)(N)[C@@H]2O1 | 43.2 | >100 |
| CCCC(CCC)CO[P@@]1(=O)OC[C@H]2O[C@@H](n3ccc(=O)[nH]c3=O)[C@](C)(N)[C@@H]2O1 | > 100 | >100 |
| C[C@@]1(N)C2O[P@@](=O)(OC3CCC3)OC[C@H]2O[C@H]1n1ccc(=O)[nH]c1=O (stereo partly drawn) | > 100 | >100 |
